Bridge positions count the residues as written; N and C are the ends. Peptide text beside a SMILES is read from it.
Columns and labels:
[1] = target: T1, Kv1.3/ET (Kv1.3/Q355 E_M358T) (Homo sapiens, UniProt P22001, M358T/Q355E); assay: Whole-cell patch clamp, Kv1.3 double mutant; format: cell-based; details: +30 mV, mean ± SD, n = 3–5
T1 construct: expressed in transfected cells; host or cells: CHO-K1
Text: In contrast, differences at positions 347, 355, and 358 between Kv1.3 and Kv1.1 prompted further analysis. To explore whether these discrepancies influence peptide-mediated inhibition, we substituted these residues in Kv1.3 with their homologous counterparts in Kv1.1 and assessed the MrVIII's inhibitory efficacy on these single-point mutants. […] To further investigate this, we introduced double adjacent mutations around Q355 and M358 in Kv1.3 to explore potential synergistic effects on MrVIII's inhibitory activity. […]
CHO-K1 cells were selected for expressing Kv channels due to their lack of endogenous Kv channels, while HEK293 or ND7/23 cells were used for Nav and Cav channel expression. […] After 4 to 6 h transfection, cells were seeded onto poly-lysine–coated coverslips, and 24 to 36 h later, transfected cells were ready for patch-clamp analysis. […]
For Kv current recordings, the bath solution contained (in mM) the following: 140 NaCl, 5 KCl, 1 MgCl2, 2 CaCl2, 10 glucose, and 10 Hepes (pH 7.3, adjusted with NaOH), and the pipette solution contained (in mM) the following: 140 KCl, 2.5 MgCl2, 11 EGTA, and 10 Hepes (pH 7.3, adjusted with KOH). […] Whole cell conductance (G) at each depolarizing voltage (V) was determined using the equation: G = I/(V−Vrev), where I is the current amplitude, and Vrev is the reversal potential. […]

[2] = test system: Kv1.3 E349A mutant; assay: Whole-cell patch clamp, Kv1.3 alanine mutant; format: cell-based, human; details: 100 nM MrVIII, +30 mV; n = 4–7
Experimental: (§1) MrVIII inhibits Kv1 channels by stabilizing the voltage sensor in its resting state. […] To investigate this hypothesis, we constructed a series of alanine mutants in the S3-S4 region of the Kv1.3 channel, covering residues I336 to L363, to identify critical interactions between the peptide and the channel (Fig. 6A). […] For the remaining mutants that retained functional current expression, we evaluated the inhibitory activity of 100 nM MrVIII. […] The lack of conserved multiple interaction sites may explain the absence of activity on other Kv subfamily channels (Fig. S3). In summary, this study identified key amino acid residues in the S3-S4 region of the Kv1.3 channel that interact with MrVIII, providing a foundation for further exploration into the peptide's mechanism of action.
(§2) The cDNA of hKv1.1, hKv1.2, hKv1.3, rKv1.4, hKv1.5, mKv1.6, and hKv1.7 were subcloned into mammalian expression vectors pcDNA3.1 or pCMV-blank vectors, as well as other plasmids described previously ([35]). Channel mutants were generated by site-directed mutations. Briefly, the parental channel plasmid was amplified using a pair of oppositely directed primers harboring the designed mutation site, with KOD Fx (TOYOBO Co, Ltd). The resulting PCR mix was treated with FastDigest DpnI (Thermo Fisher Scientific) to remove the methylated template. Ten microliters of the digested product was then used to transform 100 μl E. coli DH5α competent cells. Transformants were randomly picked and sequenced to confirm the presence of the intended mutation.
(§3) CHO-K1 cells were selected for expressing Kv channels due to their lack of endogenous Kv channels, while HEK293 or ND7/23 cells were used for Nav and Cav channel expression. CHO-K1 cells were cultured in a Dulbecco's modified Eagle's medium/Ham's F-12 nutrient mixture (DMEM-F12) medium, and HEK293T and ND7/23 cells in DMEM medium, all supplemented with 10% fetal bovine serum and 1% penicillin-streptomycin (all from Gibco, Thermo Fisher Scientific, Inc) under standard conditions (37 °C, 5% CO2, and saturated humidity). These cell lines were purchased from Stem Cell Bank, Chinese Academy of Sciences. Channel plasmids were cotransfected with pEGFP-N1 (encoding GFP) into the respective cells using lipofectamine 2000, following the manufacturer's instructions (Invitrogen, Thermo Fisher Scientific, Inc.). Nav1.9-GFP plasmid was transfected into ND7/23 using the X-tremeGENE HP DNA Transfection Reagent (Roche). After 4 to 6 h transfection, cells were seeded onto poly-lysine–coated coverslips, and 24 to 36 h later, transfected cells were ready for patch-clamp analysis.
(§4) Patch clamp experiments were conducted using an electrophysiology platform comprising a MultiClamp 700B amplifier and an Axon Digidata 1550 AD/DA convertor (Axon Instruments). Data acquisition was performed with pClamp 10.5 software (Axon Instruments). All experiments were performed at room temperature.
(§5) For Kv current recordings, the bath solution contained (in mM) the following: 140 NaCl, 5 KCl, 1 MgCl2, 2 CaCl2, 10 glucose, and 10 Hepes (pH 7.3, adjusted with NaOH), and the pipette solution contained (in mM) the following: 140 KCl, 2.5 MgCl2, 11 EGTA, and 10 Hepes (pH 7.3, adjusted with KOH). Series resistance was maintained below 10 MΩ and compensated to 80%. Concentration–response curves were fitted by the Hill equation to determine the toxin's potency. Whole cell conductance (G) at each depolarizing voltage (V) was determined using the equation: G = I/(V−Vrev), where I is the current amplitude, and Vrev is the reversal potential. The reversal potential for K^+ current was estimated to be −85.6 mV using the Nernst equation. G-V curves were obtained by plotting the normalized conductance as a function of V and fitted by the Boltzmann equation: y = 1/(1+ exp((Va-V)/k)), which Va is the midpoint voltage, V is the test potential, and k is the slope factor. The steady-state fast inactivation of Kv1.3 was measured using a two-pulses protocol. […]

[3] = test system: Kv1.3 G344A mutant; assay: Whole-cell patch clamp, Kv1.3 alanine mutant; format: cell-based, human; details: 100 nM MrVIII, +30 mV; n = 4–7
Experimental: as §1, §2, §3, §4, §5

[4] = test system: Kv1.3 Q355A mutant; assay: Whole-cell patch clamp, Kv1.3 alanine mutant; format: cell-based, human; details: 100 nM MrVIII, +30 mV; n = 4–7
Experimental: as §1, §2, §3, §4, §5

[5] = test system: Kv1.3 T345A mutant; assay: Whole-cell patch clamp, Kv1.3 alanine mutant; format: cell-based, human; details: 100 nM MrVIII, +30 mV; n = 4–7
Experimental: as §1, §2, §3, §4, §5

[6] = test system: Kv1.3/Y339A; assay: Whole-cell patch clamp, Kv1.3 alanine mutant; format: cell-based, human
Experimental: as §1, §2, §3, §4, §5

T1 sequence (P22001 whole entry Q355E/M358T): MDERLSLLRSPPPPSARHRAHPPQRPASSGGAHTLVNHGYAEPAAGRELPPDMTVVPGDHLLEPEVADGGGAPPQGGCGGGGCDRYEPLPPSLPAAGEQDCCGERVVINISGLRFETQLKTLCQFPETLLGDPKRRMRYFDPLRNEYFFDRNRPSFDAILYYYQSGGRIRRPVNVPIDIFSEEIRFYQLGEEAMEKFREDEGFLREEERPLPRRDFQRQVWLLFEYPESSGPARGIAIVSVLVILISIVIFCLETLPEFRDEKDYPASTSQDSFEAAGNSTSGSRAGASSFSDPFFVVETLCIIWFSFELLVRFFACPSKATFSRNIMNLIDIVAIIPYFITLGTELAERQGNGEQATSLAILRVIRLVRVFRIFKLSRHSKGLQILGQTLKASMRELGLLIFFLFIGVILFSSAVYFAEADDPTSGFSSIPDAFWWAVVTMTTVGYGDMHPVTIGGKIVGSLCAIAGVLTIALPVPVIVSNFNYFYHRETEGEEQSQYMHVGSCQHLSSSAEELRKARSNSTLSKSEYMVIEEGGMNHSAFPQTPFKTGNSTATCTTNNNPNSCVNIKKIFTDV

CC[C@H](C)[C@@H]1NC(=O)[C@H](Cc2ccc(O)cc2)NC(=O)[C@H](CCC(N)=O)NC(=O)[C@@H]2CCCN2C(=O)[C@@H]2CSSC[C@H](NC(=O)[C@H](C)NC(=O)[C@H](CO)NC(=O)[C@H](CCC(=O)O)NC(=O)[C@H](CCC(=O)O)NC(=O)[C@@H](N)[C@@H](C)O)C(=O)NCC(=O)NCC(=O)N[C@@H](Cc3ccccc3)C(=O)N[C@@H](CC(N)=O)C(=O)N[C@@H](C)C(=O)N[C@@H](CCCNC(=N)N)C(=O)N[C@H]3CSSC[C@H](NC1=O)C(=O)N[C@@H](CCCCN)C(=O)NCC(=O)N[C@@H](Cc1c[nH]c4ccccc14)C(=O)N[C@@H](CCCNC(=N)N)C(=O)N[C@@H]([C@@H](C)O)C(=O)N[C@@H](CCCCN)C(=O)N[C@@H](CCCNC(=N)N)C(=O)N[C@H](C(=O)N[C@@H](CC(C)C)C(=O)N[C@@H](CC(N)=O)C(=O)N1CCC[C@H]1C(=O)O)CSSC[C@H](NC(=O)[C@H](CCCCN)NC(=O)[C@H](Cc1c[nH]cn1)NC(=O)[C@H](CC(C)C)NC(=O)[C@@H]1CCCN1C3=O)C(=O)N2 [MrVIII] (H-TEESACGGFNARCPLHKCCPQYICKGWRTKRCLNP-OH; disulfide 6-19, 13-24, 18-32; N-terminus and C-terminus assumed)
IC50 ([1]; current at 50 ms): 122 ± 24.5 nM | inhi%(495 ms), Kv1.3/ET current ([1]; current at 495 ms): −35.4 ± 20.7% | reduction in inhibitory potency vs WT Kv1.3, E349A [2]: more than 5 fold | reduction in inhibitory potency vs WT Kv1.3, G344A [3]: more than 5 fold | reduction in inhibitory potency vs WT Kv1.3, Q355A [4]: more than 5 fold | reduction in inhibitory potency vs WT Kv1.3, T345A [5]: more than 5 fold | decrease of inhibitory potency vs WT Kv1.3, Y339A ([6]; 100 nM MrVIII on mutant compared with 10 nM on WT Kv1.3, +30 mV, n = 4–7): more than 10 fold | inhibition of peak current of Kv1.3/Y339A ([6]; 10 μM MrVIII, +30 mV, mean ± SD, n = 4–6, SD): 24.9 ± 6.0%

From PMC11984586, “A novel spider toxin as a selective antagonist of the Kv1 subfamily of voltage-gated potassium channels through gating modulation” (The Journal of Biological Chemistry, 2025)
